Measurements from patent US4083993A, “Compositions containing benzoylacetonitrile and method of use to treat inflammation” (American Cyanamid Co., priority 1977, dated 1978).

Test system: adjuvant induced arthritis
Test: adjuvant induced arthritis in rats (Freund's adjuvant, injected right hind paw; chronic inflammation with joint destruction)
Format: in vivo, royal Hart, Wistar strain rats
Settings: oral, once daily days 0-13
Method: Groups of three royal Hart, Wistar strain rats weighing 200+10 grams each were injected intradermally in the right hind paw with Freund's adjuvant (dried human tubercle bacilli in a mineral oil vehicle) at a dose of 2 mg./kg. of body weight. Test compounds were administered orally in a 1.5% starch vehicle at various doses once daily on days 0 through 13 post challenge. Control rats were treated in a similar manner, but given only starch vehicle. On the 14th and 21st day post challenge the diameter of the injected paw (primary lesion) was measured by micrometer caliper. The volume of inflamed paws were estimated from these measurements and the results are expressed as percent inhibition of swelling as compared to controls. At the same time, the other inflamed sites, such as ears, paws and tail (secondary lesions) were observed and each rat was graded as to degree of inflammation and swelling present. The grading is based on a scale of 0 to 24, where 0 represents a complete absence of induced arthritic nodules and 24 represents the maximum degree of inflammation. The mean grade for each treated group is calculated and the effects of each compound are expressed as percent inhibition of the control grade. Table I records the results of these tests conducted with benzoylacetonitrile, o-fluorobenzoylacetonitrile, m-fluorobenzoylacetonitrile, p-fluorobenzoylacetonitrile, and known anti-inflammatory agents. The active compounds of the present invention suppress the progression of the arthritis and associated joint deterioration.

[1] = 50 mg./kg. of body weight, day 14
[2] = 50 mg./kg. of body weight, day 21
[3] = 25 mg./kg. of body weight, day 14
[4] = 25 mg./kg. of body weight, day 21
[5] = 100 mg./kg. of body weight, day 14
[6] = 100 mg./kg. of body weight, day 21
[7] = 200 mg./kg. of body weight, day 14
[8] = 200 mg./kg. of body weight, day 21
[9] = 400 mg./kg. of body weight, day 14
[10] = 400 mg./kg. of body weight, day 21

SMILES	Dead/Treated At 21 Days (50 mg./kg. of body weight)	% Inhibition of Swelling (primary lesion) [1]	Mean Weight Gain [1]	% Inhibition of Swelling (primary lesion) [2]	Mean Weight Gain [2]	Dead/Treated At 21 Days (25 mg./kg. of body weight)	% Inhibition of Control Grade (secondary lesion) [3]	% Inhibition of Swelling (primary lesion) [3]	Mean Weight Gain [3]	% Inhibition of Control Grade (secondary lesion) [4]	% Inhibition of Swelling (primary lesion) [4]	Mean Weight Gain [4]	% Inhibition of Control Grade (secondary lesion) [1]	% Inhibition of Control Grade (secondary lesion) [2]	Dead/Treated At 21 Days (100 mg./kg. of body weight)	% Inhibition of Control Grade (secondary lesion) [5]	% Inhibition of Swelling (primary lesion) [5]	Mean Weight Gain [5]	% Inhibition of Control Grade (secondary lesion) [6]	% Inhibition of Swelling (primary lesion) [6]	further results
N#CCC(=O)c1ccccc1F [o-Fluorobenzoylacetonitrile, o-fluorobenzoylacetonitrile]	1/18	63%	71 grams	49%	72 grams																
N#CCC(=O)c1cccc(F)c1 [m-Fluorobenzoylacetonitrile, m-fluorobenzoylacetonitrile]	0/21	40%	43 grams	27%	37 grams																
N#CCC(=O)c1ccc(F)cc1 [p-Fluorobenzoylacetonitrile, p-fluorobenzoylacetonitrile]	2/36	56%	61 grams	39%	58 grams	1/18	25%	33%	55 grams	0%	17%	48 grams	13%	0%	4/18	44%	46%	63 grams	10%	32%	Mean Weight Gain [6]: 71 grams; Dead/Treated At 21 Days (200 mg./kg. of body weight): 3/18; % Inhibition of Control Grade (secondary lesion) [7]: 63%; % Inhibition of Swelling (primary lesion) [7]: 52%; Mean Weight Gain [7]: 67 grams; % Inhibition of Control Grade (secondary lesion) [8]: 16%; % Inhibition of Swelling (primary lesion) [8]: 32%; Mean Weight Gain [8]: 62 grams; Dead/Treated At 21 Days (400 mg./kg. of body weight): 3/18; % Inhibition of Control Grade (secondary lesion) [9]: 72%; % Inhibition of Swelling (primary lesion) [9]: 75%; Mean Weight Gain [9]: 42 grams; % Inhibition of Control Grade (secondary lesion) [10]: 45%; % Inhibition of Swelling (primary lesion) [10]: 63%; Mean Weight Gain [10]: 64 grams
N#CCC(=O)c1ccccc1 [Benzoylacetonitrile, benzoylacetonitrile]	6/54	51%	53 grams	42%	59 grams	3/36	40%	54%	54 grams	14%	33%	56 grams	52%	26%	5/36	70%	63%	49 grams	43%	48%	Mean Weight Gain [6]: 65 grams; Dead/Treated At 21 Days (200 mg./kg. of body weight): 2/18; % Inhibition of Control Grade (secondary lesion) [7]: 70%; % Inhibition of Swelling (primary lesion) [7]: 73%; Mean Weight Gain [7]: 56 grams; % Inhibition of Control Grade (secondary lesion) [8]: 43%; % Inhibition of Swelling (primary lesion) [8]: 48%; Mean Weight Gain [8]: 81 grams; Dead/Treated At 21 Days (400 mg./kg. of body weight): 3/18; % Inhibition of Control Grade (secondary lesion) [9]: 84%; % Inhibition of Swelling (primary lesion) [9]: 81%; Mean Weight Gain [9]: 31 grams; % Inhibition of Control Grade (secondary lesion) [10]: 82%; % Inhibition of Swelling (primary lesion) [10]: 72%; Mean Weight Gain [10]: 72 grams
